This is an account of results in patent US20250304563A1, “ACTIVATORS OF EFFECTOR T CELLS” (Orum Therapeutics, Inc., priority 2022, published 2025).

Test [1] addresses Cbl-b (36-427 aa truncated form, N-terminus Avi-tag) (Homo sapiens (Human), UniProt Q13191). Briefly: Cbl-b binding: TR-FRET displacement of BODIPY-FL probe. The method in brief: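 Avi-tagged Cbl-b 36-427 preincubated 1 h at RT with streptavidin-terbium in HEPES pH 7.5/NaCl/Triton/BSA/TCEP buffer, then 1 uM BODIPY-FL inhibitor probe plus compound added for 1 h. Probe displacement read by TR-FRET; IC50 fitted.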
For orientation: In TR-FRET formats the signal depends on donor and acceptor labels being close together.

The test system of test [2] is Human primary T cells. The experiment in a line: T cell activation: secreted IL-2. The test is classed as cell-based. The conditions noted are these: 48 hours, fold over background normalized to Compound 141A; for IL-2 1 nM: 1 nM compound; for IL-2 10 nM: 10 nM compound; for IL-2 100 nM: 100 nM compound. The protocol: (§1) Human primary T cells were isolated from commercially available frozen peripheral blood mononuclear cells (HemaCare Corporation) or from fresh LeukoPaks (Research Blood Components). T cells were isolated through depletion of non-T cells using negative selection kit according to the manufacturer's protocol (Miltenyi Biotec, Human Pan T Cell Isolation Kit, 130-096-535). Isolated cells were cultured overnight at 37° C. with 5% CO2 and plated at 1×10^5 cells per well in XVivo-15 serum-free media (Lonza, 04-418Q) into 96 well plates coated with anti-CD3 (OKT3) antibody (ThermoFisher, 16-0037-85). To coat the plates for T cell capture, anti-CD3 antibody was diluted in PBS at 10 μg/mL and 100 μl added to each well. Plates were incubated at 4° C. overnight or at 37° C. for 2 hours and washed once with PBS before use. Serial dilutions of each compound were added in duplicates to the T cells to assess their effect on T cell activation. T cells treated with 5 μg/mL of CD28 antibody (ThermoFisher, 16-0289-85) or T cells stimulated by CD3 only were used as a control. Plates were incubated with the Cbl-b inhibitors for 48 hours at 37° C. with 5% CO2, and supernatants were subsequently analyzed for levels of the activation induced secreted cytokines IL-2 or IFN-y (BD Biosciences CBA Flex Beads, 558269, 558270). T cells were additionally stained with anti-CD69 antibody (Invitrogen, 12-0699-42 which labels a T cell activation associated membrane protein to and surface expression was measured by flow cytometry (ThermoFisher Attune NxT).
(§2) To control for natural inter-donor variability in T cell responses intrinsic to using primary human donor derived cells, secreted IL-2 and IFN-y measurements for each test compound were reported as the fold increase of the compound treated levels over background (antiCD3/CD28 treatment only) normalized to the values obtained for Compound 141A. Results for compound treatment-induced changes in CD69 levels are similarly reported as the fold increase due to compound treatment over anti-CD3 stimulated background only, normalized to values obtained for Compound 141A.
Normalized T cell IL-2 responses were sorted into ranges as follows: fold over background values between 1.41 and 1.8: range “X”, between 0.80 and 1.40: range “A”, values between 0.31 and 0.79: range “B” values between 0.10 and 0.30: range “C”, values between 0.01 and 0.09: range “D.”

The test system of test [3] is Human primary T cells. The experiment in a line: T cell activation: secreted IFN-y. The test is classed as cell-based. The conditions noted are these: 48 hours, fold over background normalized to Compound 141A; for IFN-y 1 nM: 1 nM compound; for IFN-y 10 nM: 10 nM compound; for IFN-y 100 nM: 100 nM compound. The protocol: as §1, §2
Normalized T cell IFN-y responses were sorted into ranges as follows: fold over background between 1.10 and 2.00: range “A”, values between 0.31 and 1.00: range “B;” values between 0.10 and 0.30: range “C”, and values between 0.01 and 0.09: range “D.”

The test system of test [4] is Human primary T cells. Briefly: T cell activation: CD69 surface expression by flow cytometry. The test is classed as cell-based. The following applies: fold over anti-CD3 stimulated background normalized to Compound 141A; for CD69 10 nM: 10 nM compound; for CD69 100 nM: 100 nM compound. The protocol: as §1, §2
Similarly, bins for normalized CD69 levels were sorted into ranges as follows: fold over background values between 1.11 and 1.6: range “X”, values between 0.81 and 1.10: range “A”; values between 0.61 and 0.80: range “B;” values between 0.30 and 0.60: range “C”.

As usually defined, the IC50 is the midpoint of a concentration-inhibition curve.

Chain of Cbl-b (36-427 aa truncated form, N-terminus Avi-tag) (Q13191 36-427): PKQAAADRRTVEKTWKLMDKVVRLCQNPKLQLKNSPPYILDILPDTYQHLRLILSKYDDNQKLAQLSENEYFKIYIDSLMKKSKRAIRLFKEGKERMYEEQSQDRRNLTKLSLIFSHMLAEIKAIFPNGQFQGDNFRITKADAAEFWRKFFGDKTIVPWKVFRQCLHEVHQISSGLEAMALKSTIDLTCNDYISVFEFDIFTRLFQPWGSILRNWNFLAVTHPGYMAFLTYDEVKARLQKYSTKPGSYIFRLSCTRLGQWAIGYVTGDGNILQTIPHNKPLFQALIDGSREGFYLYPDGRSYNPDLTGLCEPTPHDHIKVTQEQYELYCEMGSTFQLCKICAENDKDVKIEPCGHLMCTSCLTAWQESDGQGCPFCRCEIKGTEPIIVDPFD

Compound `C[C@H]1CCCN(Cc2cc3c(c(C(F)(F)F)c2)CN(c2cc(C4(Cc5nncn5C)COC4)cc(SCCO)n2)C3=O)C1` [Compound 102, 2-{6-[(2-hydroxyethyl)sulfanyl]-4-{3-[(4-methyl-1,2,4-triazol-3-yl)methyl]oxetan-3-yl}pyridin-2-yl}-6-{[(3S)-3-methylpiperidin-1-yl]methyl}-4-(trifluoromethyl)-3H-isoindol-1-one] gave a half-maximal inhibitory concentration (IC50) in test [1] of 0.00501 to 0.02 µM. Moreover, in test [2], the “IL-2 1 nM” value was “C (values between 0.10 and 0.30: range “C”)”; the “IL-2 10 nM” value is “C (values between 0.10 and 0.30: range “C”)”; the “IL-2 100 nM” value was “B (values between 0.31 and 0.79: range “B”)”. In addition, in test [3], the “IFN-y 1 nM” value is “C (values between 0.10 and 0.30: range “C”)”; the “IFN-y 10 nM” value is “C (values between 0.10 and 0.30: range “C”)”; the “IFN-y 100 nM” value is “B (values between 0.31 and 1.00: range “B;”)”. In test [4], the “CD69 10 nM” value was “C (values between 0.30 and 0.60: range “C”)”; the “CD69 100 nM” value was “B (values between 0.61 and 0.80: range “B;”)”.

In test [1], `CSCCNc1cc(C2(Cc3nncn3C)COC2)cc(N2Cc3c(cc(CN4CCC[C@H](C)C4)cc3C(F)(F)F)C2=O)n1` [Compound 103, 2-(4-{3-[(4-methyl-1,2,4-triazol-3-yl)methyl]oxetan-3-yl}-6-{[2-(methylsulfanyl)ethyl]amino}pyridin-2-yl)-6-{[(3S)-3-methylpiperidin-1-yl]methyl}-4-(trifluoromethyl)-3H-isoindol-1-one] returned an IC50 of 0.00501 to 0.02 µM. Also, in test [2], the “IL-2 1 nM” value was “C (values between 0.10 and 0.30: range “C”)”; the “IL-2 10 nM” value was “C (values between 0.10 and 0.30: range “C”)”; the “IL-2 100 nM” value was “B (values between 0.31 and 0.79: range “B”)”. For the same compound, in test [3], the “IFN-y 1 nM” value is “C (values between 0.10 and 0.30: range “C”)”; the “IFN-y 10 nM” value was “C (values between 0.10 and 0.30: range “C”)”; the “IFN-y 100 nM” value was “B (values between 0.31 and 1.00: range “B;”)”. Besides, in test [4], the “CD69 10 nM” value is “C (values between 0.30 and 0.60: range “C”)”; the “CD69 100 nM” value is “B (values between 0.61 and 0.80: range “B;”)”.

`CCNc1cc(C2(Cc3nncn3C)COC2)cc(N2Cc3c(cc(CN4CCC(CSC)CC4)cc3C(F)(F)F)C2=O)n1` [Compound 106, 2-[6-(ethylamino)-4-{3-[(4-methyl-1,2,4-triazol-3-yl)methyl]oxetan-3-yl}pyridin-2-yl]-6-({4-[(methylsulfanyl)methyl]piperidin-1-yl}methyl)-4-(trifluoromethyl)-3H-isoindol-1-one]: the half-maximal inhibitory concentration (IC50) in test [1] fell in the range of 0.1 to 1 µM. In addition, in test [2], the “IL-2 1 nM” value was “C (values between 0.10 and 0.30: range “C”)”; the “IL-2 10 nM” value was “C (values between 0.10 and 0.30: range “C”)”; the “IL-2 100 nM” value was “B (values between 0.31 and 0.79: range “B”)”. Besides, in test [3], the “IFN-y 1 nM” value is “C (values between 0.10 and 0.30: range “C”)”; the “IFN-y 10 nM” value was “C (values between 0.10 and 0.30: range “C”)”; the “IFN-y 100 nM” value was “B (values between 0.31 and 1.00: range “B;”)”. For the same compound, in test [4], the “CD69 10 nM” value was “C (values between 0.30 and 0.60: range “C”)”; the “CD69 100 nM” value was “B (values between 0.61 and 0.80: range “B;”)”.

In test [1], `CCSc1cc(C2(Cc3nncn3C)COC2)cc(N2Cc3c(cc(CN4CCC[C@H](C)C4)cc3C(F)(F)F)C2=O)n1` [Compound 107, 2-[6-(ethylsulfanyl)-4-{3-[(4-methyl-1,2,4-triazol-3-yl)methyl]oxetan-3-yl}pyridin-2-yl]-6-{[(3S)-3-methylpiperidin-1-yl]methyl}-4-(trifluoromethyl)-3H-isoindol-1-one] registered an IC50 of 0.00501 to 0.02 µM. Also, in test [2], the “IL-2 1 nM” value is “B (values between 0.31 and 0.79: range “B”)”; the “IL-2 10 nM” value is “B (values between 0.31 and 0.79: range “B”)”; the “IL-2 100 nM” value was “A (between 0.80 and 1.40: range “A”)”. Also, in test [3], the “IFN-y 1 nM” value was “B (values between 0.31 and 1.00: range “B;”)”; the “IFN-y 10 nM” value is “B (values between 0.31 and 1.00: range “B;”)”; the “IFN-y 100 nM” value is “B (values between 0.31 and 1.00: range “B;”)”. Also, in test [4], the “CD69 10 nM” value was “A (values between 0.81 and 1.10: range “A”)”; the “CD69 100 nM” value is “A (values between 0.81 and 1.10: range “A”)”.

In test [1], `C[C@H]1CCCN(Cc2cc3c(c(C(F)(F)F)c2)CN(c2cc(C4(Cc5nncn5C)COC4)cc(NCCC#N)n2)C3=O)C1.O=CO` [Compound 110, 3-[(4-{3-[(4-methyl-1,2,4-triazol-3-yl)methyl]oxetan-3-yl}-6-(6-{[(3S)-3-methylpiperidin-1-yl]methyl}-1-oxo-4-(trifluoromethyl)-3H-isoindol-2-yl)pyridin-2-yl)amino]propanenitrile; formic acid] yielded a half-inhibitory concentration (IC50) of 0.001 to 0.005 µM. For the same compound, in test [2], the “IL-2 1 nM” value is “C (values between 0.10 and 0.30: range “C”)”; the “IL-2 10 nM” value is “B (values between 0.31 and 0.79: range “B”)”; the “IL-2 100 nM” value was “B (values between 0.31 and 0.79: range “B”)”. In test [3], the “IFN-y 1 nM” value was “B (values between 0.31 and 1.00: range “B;”)”; the “IFN-y 10 nM” value was “B (values between 0.31 and 1.00: range “B;”)”; the “IFN-y 100 nM” value was “B (values between 0.31 and 1.00: range “B;”)”. In test [4], the “CD69 10 nM” value is “B (values between 0.61 and 0.80: range “B;”)”; the “CD69 100 nM” value is “A (values between 0.81 and 1.10: range “A”)”.

With `CCNc1cc(C2(Cc3nncn3C)COC2)cc(N2Cc3c(cc(CN4CCC[C@H](CSC)C4)cc3C(F)(F)F)C2=O)n1` [Compound 111, 2-[6-(ethylamino)-4-{3-[(4-methyl-1,2,4-triazol-3-yl)methyl]oxetan-3-yl}pyridin-2-yl]-6-{[(3S)-3-[(methylsulfanyl)methyl]piperidin-1-yl]methyl}-4-(trifluoromethyl)-3H-isoindol-1-one], the concentration for half-maximal inhibition (IC50) in test [1] is 0.00501 to 0.02 µM. For the same compound, in test [2], the “IL-2 1 nM” value was “C (values between 0.10 and 0.30: range “C”)”; the “IL-2 10 nM” value was “B (values between 0.31 and 0.79: range “B”)”; the “IL-2 100 nM” value is “B (values between 0.31 and 0.79: range “B”)”. In test [3], the “IFN-y 1 nM” value was “B (values between 0.31 and 1.00: range “B;”)”; the “IFN-y 10 nM” value is “B (values between 0.31 and 1.00: range “B;”)”; the “IFN-y 100 nM” value was “B (values between 0.31 and 1.00: range “B;”)”. Moreover, in test [4], the “CD69 10 nM” value is “B (values between 0.61 and 0.80: range “B;”)”; the “CD69 100 nM” value was “A (values between 0.81 and 1.10: range “A”)”.

Regarding `CCSc1cc(C2(c3nncn3C)CC(C)C2)cc(N2Cc3c(cc(CN4CCC[C@H](C)C4)cc3C(F)(F)F)C2=O)n1` (stereo partly drawn) [Compound 112, 2-[6-(ethylsulfanyl)-4-[(1r,3s)-3-methyl-1-(4-methyl-1,2,4-triazol-3-yl)cyclobutyl]pyridin-2-yl]-6-{[(3S)-3-methylpiperidin-1-yl]methyl}-4-(trifluoromethyl)-3H-isoindol-1-one], in test [1], the half-inhibitory concentration (IC50) was in the range of 0.02 to 0.1 µM. Further, in test [2], the “IL-2 1 nM” value was “C (values between 0.10 and 0.30: range “C”)”; the “IL-2 10 nM” value was “C (values between 0.10 and 0.30: range “C”)”; the “IL-2 100 nM” value was “B (values between 0.31 and 0.79: range “B”)”. In test [3], the “IFN-y 1 nM” value was “C (values between 0.10 and 0.30: range “C”)”; the “IFN-y 10 nM” value is “B (values between 0.31 and 1.00: range “B;”)”; the “IFN-y 100 nM” value was “B (values between 0.31 and 1.00: range “B;”)”. In test [4], the “CD69 10 nM” value was “C (values between 0.30 and 0.60: range “C”)”; the “CD69 100 nM” value is “B (values between 0.61 and 0.80: range “B;”)”.
